Each block holds one compound with its values, some of them ahead of it.
Key:
[1] = biological target: Dual specificity tyrosine-phosphorylation-regulated kinase 1A (Homo sapiens, UniProt Q13627); assay: Selectivity interaction (Kinase panel (Invitrogen)) EUB0000639a DYRK1A; conditions: at 200 nM
[2] = biological target: T1, Mitogen-activated protein kinase kinase kinase 2 (Homo sapiens) (UniProt Q9Y2U5); assay: Selectivity interaction (ActivX KiNativ screen (kinase selectivity in THP-1 cell lysates)) EUB0000639a MAP3K2; type: subcellular; conditions: lysate, at 1 µM
T1 sequence (whole entry): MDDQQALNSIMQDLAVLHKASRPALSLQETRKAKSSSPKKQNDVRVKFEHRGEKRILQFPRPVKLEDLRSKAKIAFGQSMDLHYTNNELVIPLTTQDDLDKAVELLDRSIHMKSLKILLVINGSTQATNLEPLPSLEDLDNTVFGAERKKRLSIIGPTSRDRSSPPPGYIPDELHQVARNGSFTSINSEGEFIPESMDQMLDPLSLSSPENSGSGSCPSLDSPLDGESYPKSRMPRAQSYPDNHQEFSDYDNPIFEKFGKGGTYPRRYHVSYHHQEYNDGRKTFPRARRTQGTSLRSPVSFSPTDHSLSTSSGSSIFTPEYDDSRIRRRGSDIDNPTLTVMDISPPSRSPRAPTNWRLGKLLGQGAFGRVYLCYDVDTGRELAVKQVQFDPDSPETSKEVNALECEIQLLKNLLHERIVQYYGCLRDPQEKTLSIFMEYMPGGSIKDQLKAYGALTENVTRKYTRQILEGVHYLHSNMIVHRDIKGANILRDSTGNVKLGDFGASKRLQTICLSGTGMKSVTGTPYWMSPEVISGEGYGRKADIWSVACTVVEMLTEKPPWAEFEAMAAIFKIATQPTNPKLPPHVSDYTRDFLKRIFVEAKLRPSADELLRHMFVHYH

[3] = biological target: 5'-AMP-activated protein kinase catalytic subunit alpha-1 (Homo sapiens, UniProt Q13131); assay: Selectivity interaction (ActivX KiNativ screen (kinase selectivity in THP-1 cell lysates)) EUB0000639a PRKAA1; type: subcellular; conditions: lysate, at 0.2 µM
[4] = biological target: T2, Serine/threonine-protein kinase Chk1 (Homo sapiens) (UniProt O14757); conditions: at 10 µM
T2 sequence (whole entry): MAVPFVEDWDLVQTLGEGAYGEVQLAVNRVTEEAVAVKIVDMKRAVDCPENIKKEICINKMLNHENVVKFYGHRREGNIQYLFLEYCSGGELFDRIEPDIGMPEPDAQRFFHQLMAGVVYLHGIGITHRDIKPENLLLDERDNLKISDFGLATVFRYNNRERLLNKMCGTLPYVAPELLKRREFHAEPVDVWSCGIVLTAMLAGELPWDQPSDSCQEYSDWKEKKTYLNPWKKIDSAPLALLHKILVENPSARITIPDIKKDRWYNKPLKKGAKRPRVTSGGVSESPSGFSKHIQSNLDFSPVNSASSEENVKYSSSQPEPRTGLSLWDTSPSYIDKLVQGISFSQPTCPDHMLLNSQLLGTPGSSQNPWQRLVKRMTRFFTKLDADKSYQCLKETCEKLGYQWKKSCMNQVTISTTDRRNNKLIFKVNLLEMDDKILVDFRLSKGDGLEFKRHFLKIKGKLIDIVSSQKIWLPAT

[5] = biological target: Death-associated protein kinase 1 (Homo sapiens, UniProt P53355); assay: Selectivity interaction (KinomeScan (DiscoverX)) EUB0000595a DAPK1; conditions: at 10 µM
[6] = biological target: T3, Serine/threonine-protein kinase DCLK3 (Homo sapiens) (UniProt Q9C098); assay: Selectivity interaction (KinomeScan (DiscoverX)) EUB0000618a DCLK3; conditions: at 10 µM
T3 sequence (whole entry): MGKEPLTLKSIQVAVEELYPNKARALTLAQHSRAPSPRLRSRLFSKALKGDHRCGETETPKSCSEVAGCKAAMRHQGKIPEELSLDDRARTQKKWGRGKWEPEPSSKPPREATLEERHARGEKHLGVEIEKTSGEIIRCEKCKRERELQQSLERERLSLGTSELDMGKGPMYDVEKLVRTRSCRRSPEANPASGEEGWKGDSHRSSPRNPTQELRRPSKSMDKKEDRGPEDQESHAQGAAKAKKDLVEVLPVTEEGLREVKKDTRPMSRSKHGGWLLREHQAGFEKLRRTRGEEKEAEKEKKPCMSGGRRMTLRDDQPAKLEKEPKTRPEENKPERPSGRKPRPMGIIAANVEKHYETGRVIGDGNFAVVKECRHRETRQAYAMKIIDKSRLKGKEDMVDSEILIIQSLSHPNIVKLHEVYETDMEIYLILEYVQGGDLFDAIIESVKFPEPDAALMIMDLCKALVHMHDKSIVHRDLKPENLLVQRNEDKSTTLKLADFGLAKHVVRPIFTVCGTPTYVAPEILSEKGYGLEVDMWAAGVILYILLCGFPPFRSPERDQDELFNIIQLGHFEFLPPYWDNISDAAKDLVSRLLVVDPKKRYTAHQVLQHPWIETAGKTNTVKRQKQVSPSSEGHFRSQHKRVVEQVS

[7] = biological target: T4, Serine/threonine-protein kinase RIO3 (Homo sapiens) (UniProt O14730); assay: Selectivity interaction (KinomeScan (DiscoverX)) EUB0000666a RIOK3; conditions: at 10 µM
T4 sequence (whole entry): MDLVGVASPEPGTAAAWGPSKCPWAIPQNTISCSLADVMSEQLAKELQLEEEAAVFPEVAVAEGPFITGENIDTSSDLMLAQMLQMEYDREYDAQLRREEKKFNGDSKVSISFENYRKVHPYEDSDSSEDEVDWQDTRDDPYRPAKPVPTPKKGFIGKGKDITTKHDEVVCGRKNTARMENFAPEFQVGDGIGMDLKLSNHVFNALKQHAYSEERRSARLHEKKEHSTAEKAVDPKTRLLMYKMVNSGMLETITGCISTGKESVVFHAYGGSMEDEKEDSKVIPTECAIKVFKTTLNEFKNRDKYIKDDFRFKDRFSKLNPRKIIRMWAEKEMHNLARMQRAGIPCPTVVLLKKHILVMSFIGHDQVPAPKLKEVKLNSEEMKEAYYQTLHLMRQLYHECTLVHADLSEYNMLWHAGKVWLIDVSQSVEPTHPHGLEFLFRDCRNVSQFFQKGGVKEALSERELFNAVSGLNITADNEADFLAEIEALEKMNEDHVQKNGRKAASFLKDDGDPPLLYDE

Chain of 5'-AMP-activated protein kinase catalytic subunit alpha-1 (Q13131 whole entry, looked up): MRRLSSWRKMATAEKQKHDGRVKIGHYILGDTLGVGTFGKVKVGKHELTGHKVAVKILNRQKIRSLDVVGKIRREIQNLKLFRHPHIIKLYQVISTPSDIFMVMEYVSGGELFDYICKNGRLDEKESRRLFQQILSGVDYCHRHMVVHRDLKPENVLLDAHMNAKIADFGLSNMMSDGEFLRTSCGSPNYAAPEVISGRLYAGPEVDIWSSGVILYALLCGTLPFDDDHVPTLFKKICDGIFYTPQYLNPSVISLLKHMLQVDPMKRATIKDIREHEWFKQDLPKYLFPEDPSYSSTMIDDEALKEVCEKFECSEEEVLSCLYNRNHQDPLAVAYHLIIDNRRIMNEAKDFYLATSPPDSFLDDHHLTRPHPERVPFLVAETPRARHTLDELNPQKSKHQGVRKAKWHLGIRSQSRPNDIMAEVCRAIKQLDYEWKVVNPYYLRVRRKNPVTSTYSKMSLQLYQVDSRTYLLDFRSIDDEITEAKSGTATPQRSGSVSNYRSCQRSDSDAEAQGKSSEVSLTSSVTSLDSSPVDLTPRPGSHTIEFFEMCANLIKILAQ
Chain of Death-associated protein kinase 1 (P53355 whole entry, looked up): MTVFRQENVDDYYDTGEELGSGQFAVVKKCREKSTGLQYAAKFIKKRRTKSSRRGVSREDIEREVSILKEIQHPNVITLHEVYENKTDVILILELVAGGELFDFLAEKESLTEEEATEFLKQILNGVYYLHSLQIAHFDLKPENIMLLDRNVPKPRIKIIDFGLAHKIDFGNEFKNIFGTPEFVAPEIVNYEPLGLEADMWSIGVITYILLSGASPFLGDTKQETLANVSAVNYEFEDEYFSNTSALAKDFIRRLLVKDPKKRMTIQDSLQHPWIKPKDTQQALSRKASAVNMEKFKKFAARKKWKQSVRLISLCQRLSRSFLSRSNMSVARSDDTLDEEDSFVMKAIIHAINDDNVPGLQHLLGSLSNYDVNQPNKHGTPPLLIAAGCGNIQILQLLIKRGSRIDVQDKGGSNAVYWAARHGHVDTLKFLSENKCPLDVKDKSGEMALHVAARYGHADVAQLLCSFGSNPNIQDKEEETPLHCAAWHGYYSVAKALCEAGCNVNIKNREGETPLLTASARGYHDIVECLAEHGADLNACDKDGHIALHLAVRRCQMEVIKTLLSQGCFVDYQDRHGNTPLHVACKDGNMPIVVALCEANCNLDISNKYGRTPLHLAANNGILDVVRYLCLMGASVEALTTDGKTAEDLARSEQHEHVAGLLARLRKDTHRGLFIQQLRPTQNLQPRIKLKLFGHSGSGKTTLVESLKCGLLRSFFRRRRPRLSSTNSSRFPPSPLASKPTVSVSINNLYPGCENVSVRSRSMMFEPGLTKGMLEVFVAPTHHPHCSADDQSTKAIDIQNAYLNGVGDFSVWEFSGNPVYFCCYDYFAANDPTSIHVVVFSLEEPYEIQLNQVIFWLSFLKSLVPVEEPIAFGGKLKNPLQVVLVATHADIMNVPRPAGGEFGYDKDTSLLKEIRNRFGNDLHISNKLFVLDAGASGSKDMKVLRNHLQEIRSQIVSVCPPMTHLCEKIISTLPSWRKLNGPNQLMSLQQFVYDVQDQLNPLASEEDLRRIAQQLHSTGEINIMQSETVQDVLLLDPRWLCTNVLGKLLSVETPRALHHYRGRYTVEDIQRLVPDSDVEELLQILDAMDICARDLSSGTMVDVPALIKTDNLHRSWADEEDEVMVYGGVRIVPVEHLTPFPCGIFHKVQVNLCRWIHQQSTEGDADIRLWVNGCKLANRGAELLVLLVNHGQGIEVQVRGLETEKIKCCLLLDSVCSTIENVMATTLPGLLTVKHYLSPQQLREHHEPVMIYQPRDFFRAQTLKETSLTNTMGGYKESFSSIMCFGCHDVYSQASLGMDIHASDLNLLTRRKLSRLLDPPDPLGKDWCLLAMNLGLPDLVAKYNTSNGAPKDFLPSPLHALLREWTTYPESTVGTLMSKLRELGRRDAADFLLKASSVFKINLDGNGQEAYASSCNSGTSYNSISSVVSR

% of inhibition [1]: 17.9%
% of inhibition [2]: -7.6%
% of inhibition [3]: -4.3%
Compound: CC[C@@H]1[C@H](F)C(=O)N[C@@H]1COc1nccc2cc(C(N)=O)c(OC)cc12 [ZIMLOVISERTIB]

% of control [4]: 100%
Compound: CCN(CC)CCCCNc1ncc2cc(-c3cc(OC)cc(OC)c3)c(NC(=O)NC(C)(C)C)nc2n1

Compound: COCC(=O)NC/C=C/c1ccc2ncnc(Nc3ccc(Oc4ccc(C)nc4)c(C)c3)c2c1 [CP-724714]
% of control [5]: 76%

Compound: O[C@H]1CC[C@H](Nc2ncc3nc(Nc4c(F)cc(F)cc4F)n([C@H]4CCOC4)c3n2)CC1
% of control [6]: 98%

Compound: O=C(NOC[C@H](O)CO)c1ccc(F)c(F)c1Nc1ccc(I)cc1F
% of control [7]: 100%
